Assay results as given in patent publication US20220098320A1, “SENOLYTIC CAR-T CELLS TARGETING UPAR, A CELL SURFACE AND SECRETED […]” (MEMORIAL SLOAN KETTERING CANCER CENTER, priority 2019, published 2022).

Experiments:
suPAR [1] = experiment: CCl4-induced liver fibrosis: plasma suPAR; assay type: in vivo; conditions: CCl4-treated mice vs untreated controls; FIGS. 5B and 16D
Experimental: In vivo induction of liver fibrosis. C57BL/6J mice were treated twice a week with 12 consecutive intraperitoneal (i.p.) injections of 1 ml/kg carbon tetrachloride (CCl4) to induce liver fibrosis. For murine CAR T cell studies, cyclophosphamide (200 mg/kg) was administered 24 hours before T cell injection. Mice received 3×10^6 CAR^+ T cells or untransduced T cells and CCl4 was continuously administered at the same dose and interval after T cell injection until day 20 post CAR injection. Animals were sacrificed 48-72 h after the last CCl4 injection. NSG mice were treated twice a week with 8 consecutive i.p. injections of 1 ml/kg CCl4 to induce liver fibrosis. For human CAR T cell studies, mice received 0.5×10^6 CAR T cells or untransduced T cells and CCl4 was continued once a week after CAR T injection until day 10 post CAR administration, when animals were sacrificed 48-72 h after the last CCl4 injection. Venous blood was collected by facial vein puncture.
(§1) Detection of suPAR levels. suPAR levels from cell culture supernatant of murine plasma were evaluated by enzyme-linked immunosorbent assay (ELISA) according to the manufacturer's protocol (R&D systems, DY531 (mouse) or DY807 (human)).

suPAR [2] = experiment: doxorubicin-induced senescence in vivo: plasma suPAR by ELISA; parameters: species or system C57BL/6J mice; conditions: doxorubicin i.p. day 0 and day 10; blood at days 10 and 20; FIG. 7D
Experimental: In vivo induction of doxorubicin-Induced senescence. […] Venous blood was collected by facial vein puncture at days 10 and 20 after initial doxorubicin administration. Detection of suPAR levels. suPAR levels from cell culture supernatant of murine plasma were evaluated by enzyme-linked immunosorbent assay (ELISA) according to the manufacturer's protocol (R&D systems, DY531 (mouse) or DY807 (human)).

suPAR [3] = experiment: bleomycin-induced lung fibrosis: plasma suPAR; assay type: in vivo, NSG mice; conditions: intratracheal bleomycin; FIGS. 9C-9E
Experimental: as §1

ClC(Cl)(Cl)Cl [CCl4, carbon tetrachloride]
plasma suPAR levels (suPAR [1]): elevation of plasma suPAR levels relative to untreated controls

COc1cccc2c1C(=O)c1c(O)c3c(c(O)c1C2=O)C[C@@](O)(C(=O)CO)C[C@@H]3O[C@H]1C[C@H](N)[C@H](O)[C@H](C)O1 [doxorubicin]
plasma levels of suPAR (suPAR [2]): time-dependent and dose-dependent correlation with the plasma levels of suPAR

bleomycin
plasma levels of suPAR (suPAR [3]): Higher levels of suPAR
